Source: US20090092975A1, “SELECTABLE MARKER” (Mologic Ltd, priority 2005, published 2009)

Tested on: not given
Settings: Table 1, monocarboxylic weak acids; cited from earlier work

Structure (SMILES) | Pka
O=C(O)C1(C(=O)O)CC1 [1,1-Cyclopropanedicarboxylic acid] | 3.114
O=C(O)C1=CCCCC1 [1-Cyclohexene-1-carboxylic acid] | 3.7528
O=C(O)C1=CCCC1 [1-Cyclopentene-1-carboxylic acid] | 3.7528
CC1(C(=O)O)CC1 [1-Methyl-cyclopropane carboxylic acid] | 5.1
CCC(C)(C)C(=O)O [2,2-Dimethylbutyric acid] | 5.03
CC#CC(=O)O [2-Butynoic acid] | 2.6546
C=C(Cl)C(=O)O [2-Chloroacrylic acid] | 2.6975
O=C(O)c1ccccc1Cl [2-Chlorobenzoic acid] | 2.89
CC(Cl)C(=O)O (centres unmarked) [2-Chloropropionic acid] | 2.897
O=C(O)CC1C=CCC1 (centres unmarked) [2-Cyclopentene-1-acetic acid] | 4.61
CCC(CC)C(=O)O [2-Ethylbutyric acid] | 4.71
O=C(O)c1ccco1 [2-Furoic acid] | 3.13
CC1CC1C(=O)O (centres unmarked) [2-Methyl-cyclopropane carboxylic acid] | 4.8
CCCC(C)C(=O)O (centres unmarked) [2-Methylvaleric acid] | 4.79
O=C(O)c1ccccc1[N+](=O)[O-] [2-Nitrobenzoic acid] | 2.47
CC(C(=O)O)c1ccccc1 (centres unmarked) [2-Phenylpropionic acid] | 4.0606
CC(C)(C)CC(=O)O [3,3-Dimethylbutyric acid] | 4.961
O=C(O)c1cccc(Cl)c1 [3-Chlorobenzoic acid] | 3.81
O=C(O)CCCl [3-Chloropropionic acid] | 3.8924

Structure (SMILES) | Pka
O=C(O)C1CC=CCC1 (centres unmarked) [3-Cyclohexene-1-carboxylic acid] | 4.593
O=C(O)CCC1CCCC1 [3-Cyclopentylpropionic acid] | 4.81
CCCCCCC=CCC(=O)O [3-Decenoic acid] | 4.728
CCCC=CCC(=O)O [3-Heptenoic acid] | 4.7696
CCC(C)CC(=O)O (centres unmarked) [3-Methylvaleric acid] | 4.7868
O=C(O)c1cccc([N+](=O)[O-])c1 [3-Nitrobenzoic acid] | 3.46
CCCCC=CCC(=O)O [3-Octenoic acid] | 4.7926
CCc1ccc(C(=O)O)cc1 [4-Ethylbenzoic acid] | 4.35
CC(C)CCC(=O)O [4-Methylvaleric acid] | 4.8689
C=CCCC(=O)O [4-Pentenoic acid] | 4.6364
C#CCCC(=O)O [4-Pentynoic acid] | 4.1342
O=C(O)CCCc1ccccc1 [4-Phenylbutyric acid] | 4.76
C=CCCCCC(=O)O [6-Heptenoic acid] | 4.81
C#CCCCCC(=O)O [6-Heptynoic acid] | 4.71
CC(C)=CCC[C@@H](C)CC(=O)O [(R)(+)Citronellic acid] | 4.752
CC(C)c1ccc(C(=O)O)cc1 [Cumic acid] | 4.35
O=C(O)C1CCCCCC1 [Cycloheptanecarboxylic acid] | 4.9518
O=C(O)CC1CCCCCC1 [Cycloheptylacetic acid] | 4.822
O=C(O)CCCC1CCCCC1 [Cyclohexanebutyric acid] | 4.9061

Structure (SMILES) | Pka
O=C(O)CC1CCCCC1 [Cyclohexylacetic acid] | 4.8806
O=C(O)C1CCCC1 [Cyclopentanecarboxylic acid] | 4.8
O=C(O)CC1CCCC1 [Cyclopentylacetic acid] | 4.76
O=C(O)CC1CC1 [Cyclopropylacetic acid] | 4.8873
C=C(C)C(=O)O [Methacrylic acid] | 4.61
O=C(O)COc1ccccc1 [Phenoxyacetic acid] | 3.17
O=C(O)Cc1ccccc1 [Phenylacetic acid] | 4.31
C#CC(=O)O [Propiolic acid] | 2.39
O=C(O)c1ccsc1 [Thiophene-3-carboxylic acid] | 4.08
C/C=C(\C)C(=O)O [Tiglic acid] | 4.4564
CCCCCCCCCCC(=O)O [Undecanoic acid] | 5.03
COc1cc(C(=O)O)ccc1O [Vanillic acid] | 4.51
C=CCC(=O)O [Vinylacetic acid] | 4.51
O=C(O)/C=C\Cl [cis-3-Chloroacrylic acid] | 3.2506
COc1cccc(C(=O)O)c1 [m-Anisic acid] | 4.09
Cc1ccccc1C(=O)O [o-Toluic acid] | 3.98
O=C(O)/C=C/Cl [trans-3-Chloroacrylic acid] | 3.2506
C/C=C/CC(=O)O [trans-3-Pentenoic acid] | 4.36

Tested on: Saccharomyces cerevisiae strain 62 expressing PAD1
Assay type: cell-based
Settings: predicted decarboxylation product in headspace; weak acid 0.5 mM, YEPD pH 4, 10 h at 28° C.; 0 = no decarboxylation
Experimental: S. cerevisiae strain 62 (which expresses the PAD1 gene) was cultured for 48 hr in YEPD pH 4, Yeast extract 10 g, Peptone 20 g, Glucose 20 g, at 28° C. in a shake flask, 120 rpm. The stationary-phase cells were inoculated into capped 28 ml McCartney bottles containing 10 mls YEPD pH 4, at 1 million cells per ml. Each bottle also contained one of 70 substrate weak acids at 0.5 mM. Tubes were then shaken for 10 h at 28° C.
1 ml samples of the headspace were passed into stainless-steel thermal desorption tubes, followed by a 10 ml air flush. (Desorption tubes—89 mm×5 mm ID, packed with 200 mg Tenax TA 60-80 mesh, Phase Separations, UK).
Thermal desorption tubes were placed in a Perkin Elmer ATD400 thermal desorption system, and the volatiles transferred to the Gas Chromatograph in a 2 stage process. Primary desorption was 250° C. for 10 min with a helium flow of […]. Using a split ratio of 1:1, volatiles were retained on a cold trap (25 mg Tenax TA) held at −30° C. Secondary desorption was carried out by rapidly heating and holding the cold trap at 250° C. for 2 min, with a helium flow of 20 ml/min and split ratio of 19:1. A DB624 column {30 m×0.32 mm, 1.8 microns film thickness} installed in a Carbo Erba GC800 was used to achieve separation and introduction of the volatile to the mass spectrometer. The column temperature was held at 40° C. for 2 min then increased at 5° C./min to 250° C. The column outlet was coupled via a heated transfer line at 250° C. into the ion source of the mass spectrometer operated at 70 eV in electron ionization (EI) mode. The source temperature was at 200° C. and the detector photomultiplier at 500V. Full scan MS data acquisition was carried out from m/z 30 to 300, with 0.6 sec scan and 0.05 sec inter scan delay.
The results are shown in Table 3, in each case the “predicted product” being the product which would be produced if decarboxylation of the weak acid were to take place.

Structure (SMILES) | GCMS Peak area
O=C(O)C=Cc1ccc(F)c(F)c1F [2,3,4-Trifluoro-cinnamic acid] | 0
COc1ccc(C=CC(=O)O)c(OC)c1OC [2,3,4-Trimethoxy-cinnamic acid] | 0
O=C(O)C=Cc1ccc(F)cc1F [2,4-Difluoro-cinnamic acid] | 35698
COc1ccc(C=CC(=O)O)c(OC)c1 [2,4-Dimethoxy-cinnamic acid] | 30
O=C(O)C=Cc1ccccc1Br [2-Bromo-cinnamic acid] | 2912
O=C(O)C=Cc1ccccc1C(=O)O [2-Carboxy-cinnamic acid] | 0
O=C(O)C=Cc1ccccc1Cl [2-Chloro-cinnamic acid] | 4911
CCOc1ccccc1C=CC(=O)O [2-Ethoxycinnamic acid] | 193
O=C(O)C=Cc1ccccc1F [2-Fluoro-cinnamic acid] | 3760
COc1ccccc1C=CC(=O)O [2-Methoxy-cinnamic acid] | 128
Cc1ccccc1C=CC(=O)O [2-Methyl-cinnamic acid] | 18046
O=C(O)C=Cc1ccccc1[N+](=O)[O-] [2-Nitro-cinnamic acid] | 0
O=C(O)C=Cc1ccccc1C(F)(F)F [2-Trifluoromethyl-cinnamic acid] | 1440
O=C(O)C=Cc1cccc(Br)c1 [3-Bromo-cinnamic acid] | 248
O=C(O)C=Cc1cccc(Cl)c1 [3-Choro-cinnamic acid] | 907
O=C(O)C=Cc1cccc(F)c1 [3-Fluoro-cinnamic acid] | 14027
COc1cccc(C=CC(=O)O)c1 [3-Methoxy-cinnamic acid] | 178
Cc1cccc(C=CC(=O)O)c1 [3-Methyl-cinnamic acid] | 8195
O=C(O)C=Cc1cccc([N+](=O)[O-])c1 [3-Nitro-cinnamic acid] | 0
O=C(O)C=Cc1cccc(C(F)(F)F)c1 [3-Trifluoromethyl-cinnamic acid] | 946

Structure (SMILES) | GCMS Peak area
O=C(O)C=Cc1ccc(C=CC(=O)O)cc1 [3-[4-(2-Carboxy-vinyl)-phenyl]-acrylic acid] | 0
O=C(O)C=Cc1ccc(Br)cc1 [4-Bromo-cinnamic acid] | 1038
O=C(O)C=Cc1ccc(Cl)cc1 [4-Choro-cinnamic acid] | 12391
CN(C)c1ccc(C=CC(=O)O)cc1 [4-Dimethylamino-cinnamic acid] | 0
CCOc1ccc(C=CC(=O)O)cc1 [4-Ethoxycinnamic acid] | 227
O=Cc1ccc(C=CC(=O)O)cc1 [4-Formyl-cinnamic acid] | 0
COc1ccc(C=CC(=O)O)cc1 [4-Methoxy-cinnamic acid] | 1899
O=C(O)C=Cc1ccc([N+](=O)[O-])cc1 [4-Nitro-cinnamic acid] | 0
O=C(O)C=Cc1ccc(C(F)(F)F)cc1 [4-Trifluoromethyl-cinnamic acid] | 1600
O=C(O)c1ccccc1 [Benzoic acid] | 0
O=CC=Cc1ccccc1 [Cinnamaldehyde] | 0
O=C(O)C=Cc1ccccc1 [Cinnamic acid] | 17538
OCC=Cc1ccccc1 [Cinnamyl alcohol] | 0
O=C(O)/C=C/c1ccc(O)cc1 [Coumaric acid] | 0
O=C(O)C=Cc1ccco1 [Furylacrylic acid] | 15611
CCCCCC(=O)O [Hexanoic acid] | 0
O=C(O)CCc1ccccc1 [Hydrocinnamic acid] | 0
O=C(O)C=Cc1c[nH]c2ccccc12 [Indole-acrylic acid] | 0
O=C(O)C#Cc1ccccc1 [Phenyl-propiolic acid] | 0
